Among the test systems are COLO 205 colon; RXF 393 renal; MOLT-4 leukemia; MALME-3M melanoma; EKVX NSCLC; MDA-MB-231 breast; SK-MEL-5 melanoma; BT-549 breast; A549 NSCLC; CAKI-1 renal; SK-OV-3 ovarian; UACC-257 melanoma; NCI-H23 lung; HCT-116 colon; KM12 colon; HOP-62 NSCLC; HOP-92 NSCLC; RPMI-8226 leukemia; MDA-N.
Holding throughout (assay): DTP human tumour cell line panel, 48 h

The structures appear in SMILES notation.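 How tested: cells in 96-well plates exposed to compound for 48 hours at five concentrations. TGI: total growth inhibition.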 Where a SMILES comes first, the peptide text is derived from it. The star is where a group is joined. ONb = O=[N+]([O-])c1ccc(CO*)cc1; Boc = CC(C)(C)OC(=O)*

As to `O=C1[C@@H]2[C@@H](c3ccccc3)[C@]2(Cl)C(=O)[C@H]2[C@H](c3ccccc3)[C@@]12Cl`, the TGI in the experiment with COLO 205 colon, with RXF 393 renal, in the experiment with MOLT-4 leukemia, in the experiment with MALME-3M melanoma, in the experiment on EKVX NSCLC and with MDA-MB-231 breast was over 100 µM each time. For the same compound, the TGI with SK-MEL-5 melanoma, in the experiment with BT-549 breast, in the experiment on A549 NSCLC, in the experiment on CAKI-1 renal, in the experiment on SK-OV-3 ovarian and with UACC-257 melanoma was over 100 µM throughout. Also, the TGI with NCI-H23 lung, in the experiment with HCT-116 colon, in the experiment on KM12 colon, in the experiment with HOP-62 NSCLC and in the experiment on HOP-92 NSCLC was over 100 µM in each case.
For the compound `O=S(=O)(O)ON=C1c2ccccc2-c2ccccc21`, the TGI in the experiment on COLO 205 colon, in the experiment with RXF 393 renal, in the experiment with MOLT-4 leukemia, in the experiment on EKVX NSCLC, in the experiment with MDA-MB-231 breast and in the experiment on SK-MEL-5 melanoma was over 100 µM in each case. The concentration for total growth inhibition (TGI) in the experiment on BT-549 breast, in the experiment on A549 NSCLC, in the experiment on CAKI-1 renal, with SK-OV-3 ovarian, in the experiment with UACC-257 melanoma and with NCI-H23 lung was over 100 µM each time. The total growth inhibition concentration (TGI) in the experiment on HCT-116 colon, with KM12 colon, with HOP-62 NSCLC, in the experiment with HOP-92 NSCLC and with RPMI-8226 leukemia was over 100 µM each time.
On to `CCOC(=O)NC(NC1=NCCS1)(C(=O)OCC)C(F)(F)F` (stereo not drawn), for which the TGI in the experiment on COLO 205 colon, in the experiment with RXF 393 renal, in the experiment with MOLT-4 leukemia, in the experiment with MDA-N, in the experiment on MALME-3M melanoma and in the experiment on EKVX NSCLC was over 100 µM throughout. The TGI with MDA-MB-231 breast, in the experiment with SK-MEL-5 melanoma, in the experiment on A549 NSCLC, in the experiment on CAKI-1 renal, in the experiment with SK-OV-3 ovarian and in the experiment with UACC-257 melanoma was over 100 µM each time. Also, the total growth inhibition concentration (TGI) in the experiment on NCI-H23 lung, with HCT-116 colon, with KM12 colon, in the experiment with HOP-62 NSCLC, in the experiment with HOP-92 NSCLC and with RPMI-8226 leukemia was over 100 µM in each case.
Turning to `CCOC(=O)C(C(=S)Nc1ccccc1)c1nn2c(=O)cc(C)nc2s1` (stereo not drawn), the TGI was 39.5 µM in the experiment on COLO 205 colon; over 100 µM in the experiment with RXF 393 renal; 69.1 µM in the experiment with MOLT-4 leukemia; 53.5 µM with MALME-3M melanoma; 49.2 µM in the experiment on EKVX NSCLC; 70 µM with MDA-MB-231 breast. For the same compound, the TGI in the experiment on SK-MEL-5 melanoma was 41.1 µM; in the experiment on BT-549 breast, 78.7 µM; with A549 NSCLC, over 100 µM; in the experiment on CAKI-1 renal, 84.7 µM; in the experiment on SK-OV-3 ovarian, 65.7 µM; in the experiment with UACC-257 melanoma, 52.2 µM. The total growth inhibition concentration (TGI) in the experiment with NCI-H23 lung was 89.5 µM; in the experiment on HCT-116 colon it was 48.3 µM; in the experiment with KM12 colon, 68.8 µM; in the experiment on HOP-62 NSCLC it was over 100 µM; in the experiment with HOP-92 NSCLC it was 57.4 µM; in the experiment on RPMI-8226 leukemia, 67.5 µM.
In the case of `COC(=O)c1ccc(C)cc1/C=C1\Cc2ccc(C)cc2C1=O`, the concentration for total growth inhibition (TGI) with COLO 205 colon is 25.1 µM; with RXF 393 renal, 31.9 µM; with MOLT-4 leukemia it was over 100 µM; in the experiment with MALME-3M melanoma, 30.1 µM; in the experiment with EKVX NSCLC, 88.4 µM; with SK-MEL-5 melanoma, 29.7 µM. Moreover, the concentration for total growth inhibition (TGI) in the experiment on BT-549 breast was 30 µM; in the experiment on A549 NSCLC, 98.4 µM; in the experiment with CAKI-1 renal, 94.3 µM; in the experiment with UACC-257 melanoma it was 51.5 µM; in the experiment on NCI-H23 lung, 99.4 µM; in the experiment on HCT-116 colon it was 23.2 µM. The concentration for total growth inhibition (TGI) with KM12 colon came to 33.8 µM; in the experiment on HOP-62 NSCLC, 39.5 µM; in the experiment with HOP-92 NSCLC, 35.2 µM; in the experiment with RPMI-8226 leukemia, 39.6 µM.
For `Nc1nc(N)c2ncn(Cc3ccccc3CCl)c2n1`, the concentration for total growth inhibition (TGI) in the experiment with COLO 205 colon, in the experiment with MOLT-4 leukemia, in the experiment on MALME-3M melanoma, in the experiment on EKVX NSCLC, with MDA-MB-231 breast and in the experiment with SK-MEL-5 melanoma was over 100 µM each time. The concentration for total growth inhibition (TGI) in the experiment on BT-549 breast, in the experiment on A549 NSCLC, in the experiment with CAKI-1 renal, in the experiment with SK-OV-3 ovarian, with UACC-257 melanoma and in the experiment on NCI-H23 lung was over 100 µM in each case. The TGI with HCT-116 colon, in the experiment on KM12 colon, with HOP-62 NSCLC, in the experiment with HOP-92 NSCLC and with RPMI-8226 leukemia was over 100 µM each time.
With `CC(C)CC(NC(=O)OC(C)(C)C)C(=O)NC(CCC(=O)OCc1ccc([N+](=O)[O-])cc1)C(=O)OCc1ccc([N+](=O)[O-])cc1` (stereo not drawn) (Boc-Leu-Glu(ONb)-ONb; configuration not given here), the TGI in the experiment with COLO 205 colon is over 100 µM; in the experiment with MOLT-4 leukemia, 39.8 µM; in the experiment with MDA-N it was over 100 µM; with MALME-3M melanoma, over 100 µM; in the experiment with EKVX NSCLC, over 100 µM; in the experiment with MDA-MB-231 breast, over 100 µM. The total growth inhibition concentration (TGI) was over 100 µM in the experiment on CAKI-1 renal; over 100 µM in the experiment with UACC-257 melanoma; 59.4 µM in the experiment on NCI-H23 lung; over 100 µM in the experiment on HCT-116 colon; over 100 µM in the experiment with HOP-62 NSCLC; over 100 µM in the experiment with HOP-92 NSCLC. This compound came in with a concentration for total growth inhibition (TGI) in the experiment on RPMI-8226 leukemia of 88.4 µM.
Regarding `COc1ccc2oc(OC)c(CC=C(C)C)c(=O)c2c1C`, the TGI in the experiment on COLO 205 colon, with MOLT-4 leukemia, in the experiment with MDA-N, in the experiment with MALME-3M melanoma, in the experiment with EKVX NSCLC and in the experiment with MDA-MB-231 breast was over 100 µM each time. Besides, the total growth inhibition concentration (TGI) in the experiment on SK-MEL-5 melanoma, with BT-549 breast, in the experiment on A549 NSCLC, with CAKI-1 renal, in the experiment on SK-OV-3 ovarian and in the experiment on UACC-257 melanoma was over 100 µM in each case. Also, the TGI with NCI-H23 lung, in the experiment on HCT-116 colon, with KM12 colon, with HOP-62 NSCLC and in the experiment with RPMI-8226 leukemia was over 100 µM in each case.

One may read the TGI as the concentration giving total growth inhibition. Low values mean greater sensitivity of the cells, high ones lower sensitivity of the cells.
